Values after ≈ are worked out from the molar mass of the structure shown.
What follows are molecules tested on Mycobacterium tuberculosis variant bovis BCG (assay: Antibacterial activity against Mycobacterium bovis BCG ATCC 35734 after 2 weeks by spot culture growth inhibition assay). Details: ATCC 35734, 336 h.
Assay type: functional
O=C(O)/C=C/c1ccc2c(c1)OCO2 was tested, and the MIC was 416 µM (≈ 79.9 µg/mL).
For CC(=O)Nc1ccccc1O, the MIC was 132 µM (≈ 20 µg/mL).
COC(=O)/C=C/c1cccc(O)c1 gave an MIC of 561 µM (≈ 100 µg/mL).
CC(C)=CCC/C(C)=C/COc1ccc(/C=C/C(=O)O)cc1 gave an MIC of 134 µM (≈ 40.3 µg/mL).
COC(=O)/C=C/c1ccc(OC/C=C(\C)CCC=C(C)C)cc1 showed an MIC of 254 µM (≈ 79.9 µg/mL).
With COC(=O)/C=C/c1ccc(OCC=C(C)C)cc1 the MIC was 60.9 µM (≈ 15 µg/mL).
With COC(=O)/C=C/c1cccc(OCC=C(C)C)c1 the MIC was 244 µM (≈ 60.1 µg/mL).
In the case of COC(=O)/C=C/c1ccccc1OCC=C(C)C, the MIC is reported as over 406 µM.
Work on CC(C)=CCOc1cccc(/C=C/C(=O)O)c1 yielded an MIC of 258 µM (≈ 59.9 µg/mL).
For CC(C)=CCOc1ccccc1/C=C/C(=O)O, the MIC was 258 µM (≈ 59.9 µg/mL).
For CC(C)=CCOc1ccc(/C=C/C(=O)O)cc1, the MIC was 86.1 µM (≈ 20 µg/mL).
COC(=O)/C=C/c1ccccc1O gave an MIC of 112 µM (≈ 20 µg/mL).
In the case of O=C(O)/C=C/c1cccc(O)c1, the MIC is reported as 609 µM (≈ 100 µg/mL).
Work on CC(=O)Nc1ccc(O)cc1 [ACETAMINOPHEN] yielded an MIC of over 661 µM.
In the case of O=C(O)/C=C/c1ccccc1 [CINNAMIC ACID], the MIC is reported as 405 µM (≈ 60 µg/mL).
With O=C(O)/C=C/c1ccc(O)cc1 [COUMARIC ACID] the MIC was 366 µM (≈ 60.1 µg/mL).
Molecule NNC(=O)c1ccncc1 [ISONIAZID] has an MIC of 0.73 µM (≈ 0.1 µg/mL).
CC(=O)Nc1cccc(O)c1 [METACETAMOL] showed an MIC of over 661 µM.
COC(=O)/C=C/c1ccc(O)cc1 [METHYL P-HYDROXYCINNAMATE] showed an MIC of 337 µM (≈ 60 µg/mL).
O=C(O)/C=C/c1ccccc1O [O-COUMARIC ACID] was tested, and the MIC was 244 µM (≈ 40.1 µg/mL).
With CO[C@H]1/C=C/O[C@@]2(C)Oc3c(C)c(O)c4c(O)c(c(/C=N/N5CCN(C)CC5)c(O)c4c3C2=O)NC(=O)/C(C)=C\C=C\[C@H](C)[C@H](O)[C@@H](C)[C@@H](O)[C@@H](C)[C@H](OC(C)=O)[C@@H]1C [RIFAMPIN] the MIC was 0.0607 µM (≈ 0.05 µg/mL).
